Assay results from article PMC10706821, “Folate-Appended Hydroxypropyl-β-Cyclodextrin Induces Autophagic Cell Death in Acute Myeloid Leukemia Cells” (International Journal of Molecular Sciences, 2023).

How the values were obtained:
HL-60 [1] = experiment: modified MTT assay (Cell Counting Kit-8), cell proliferation; type: cell-based, human
Description: (§1) The trypan blue dye exclusion method was used to evaluate cell viability. Cells (HL-60, THP1, SKM1 and Kasumi1 cells) were seeded in flat-bottomed 96-well plates at a density of 1 × 10^4 cells in 100 µL medium per well and incubated with FA-HP-β-CyD (0, 0,1, 0.25, 0.5, 0.75, 1 mM) or HP-β-CyD (0, 1, 2.5, 5, 10 mM) for 72 h. Then, viable cells were counted. Cell proliferation was evaluated by a modified MTT assay using Cell Counting Kit-8 (Dojindo Molecular Technologies, Kumamoto, Japan), as previously described. AML cells were cultured in 96-well plates at a density of 1 × 10^4 cells in 100 µL medium per well and incubated with FA-HP-β-CyD or HP-β-CyD for 72 h. The half-maximal inhibitory concentration values (IC50) were determined by non-linear regression using CalcuSyn software version 1.1.1 (Biosoft, Cambridge, UK), as previously described. After obtaining IC50 values for each agent, the antileukemic activity of FA-HP-β-CyD plus cytosine arabinoside (Ara-C) or Venetoclax was evaluated, as previously described. […] CalcuSyn was used to calculate the fraction affected (Fa, in which a value of 0.25 indicates […]) and the CI. This method is capable of quantifying synergistic (CI < 1) and antagonistic (CI > 1) effects at different dose and effect levels.

SKM-1 = experiment: as above; type: cell-based, human
Description: as §1

THP-1 = experiment: as above; type: cell-based, human
Description: as §1

HL-60 cells = experiment: AML xenograft survival model; type: in vivo, BALB/c Rag-2/JAK3 double-deficient (BRJ) mice; details: HL-60 xenograft, 20 days; for Median Survival Time: HP-β-CyD 2086.5 mg/kg i.p. twice a day, FA-HP-β-CyD 249 mg/kg i.p. twice a day, n = 6
Description: (§2) BALB/c Rag-2/JAK3 double-deficient (BRJ) mice were housed in a specific pathogen-free barrier facility and used for the xenograft transplantation experiments. All animal experiments were approved by the Institutional Review Board of Saga University and conducted in accordance with the institutional guidelines of animal care of Saga University.
(§3) HL-60 cells or THP-1 cells were injected intravenously into BRJ mice. After 72 h, mice were injected intraperitoneally with 200 μL of vehicle, FA-HP-β-CyD (15 mM, 249 mg/kg), or HP-β-CyD (150 mM, 2086.5 mg/kg) for 20 consecutive days, and survival was monitored daily. Ara-C (100 mg/kg) was injected intraperitoneally for 5 consecutive days from 72 h after transplantation. Venetoclax (25 mg/kg) was orally administered for 20 consecutive days from 72 h after transplantation. Chimerism of human leukemic cells in the BM was determined by flow cytometry after double staining with FITC-conjugated anti-human CD45 (BD Bioscience) and PE/Cy7-conjugated anti-mouse CD45 (BioLegend) antibodies. All surgery was performed under sodium pentobarbital anesthesia to minimize pain. Mice were euthanized with ether when they became moribund or were unable to obtain food or water, as recommended by Saga University institutional guidelines. Survival data were analyzed using a log-rank nonparametric test and presented as Kaplan–Meier survival curves (n = 6 for each group).

Kasumi-1 = experiment: modified MTT assay (Cell Counting Kit-8), cell proliferation; type: cell-based, human; details: Kasumi-1, 72 h
Description: (§4) The trypan blue dye exclusion method was used to evaluate cell viability. Cells (HL-60, THP1, SKM1 and Kasumi1 cells) were seeded in flat-bottomed 96-well plates at a density of 1 × 10^4 cells in 100 µL medium per well and incubated with FA-HP-β-CyD (0, 0,1, 0.25, 0.5, 0.75, 1 mM) or HP-β-CyD (0, 1, 2.5, 5, 10 mM) for 72 h. Then, viable cells were counted. Cell proliferation was evaluated by a modified MTT assay using Cell Counting Kit-8 (Dojindo Molecular Technologies, Kumamoto, Japan), as previously described. AML cells were cultured in 96-well plates at a density of 1 × 10^4 cells in 100 µL medium per well and incubated with FA-HP-β-CyD or HP-β-CyD for 72 h. […] This method is capable of quantifying synergistic (CI < 1) and antagonistic (CI > 1) effects at different dose and effect levels.

AML cell lines [2] = experiment: trypan blue dye exclusion, cell viability; type: cell-based, human; details: 72 h; FA-HP-β-CyD up to 1 mM, HP-β-CyD up to 10 mM
Description: as §4

AML cell lines [3] = experiment: Annexin V and PI staining, statements over all AML cell lines; type: cell-based, human; details: for apoptosis induction: four AML cell lines, 72 h
Description: PI and Annexin V (BD Biosciences, San Jose, CA, USA) staining was performed to assess apoptosis, as previously described [53]. Cells were filtered through nylon mesh and assessed using a FACSVerse flow cytometer (BD Biosciences). Data were analyzed using FlowJo software 10.8.2 (Tree Star, Inc., Ashland, OR, USA).

HL-60 [4] = experiment: cell cycle analysis (PI, flow cytometry); type: cell-based, human; details: HL-60, 24 h
Description: (§5) Cell cycle analyses of AML cell lines (HL-60, THP1, SKM1, and Kasumi1 cells) were performed as described previously. In brief, 1 × 10^6 cells were treated with the indicated concentrations of CyDs. After 24 h of CyD treatment, cells were collected and fixed with 70% ethanol. Cells were then incubated at room temperature for 30 min with 0.1% Triton X-100/0.5% RNase A and stained with 50 μg/mL PI (BD Biosciences, San Jose, CA, USA). Cellular DNA content was analyzed by flow cytometry, and cell cycle profiles were determined in a FACS CantoII flow cytometer with CellQuest software (version 1.0.6, BD Biosciences).

Kasumi1 = experiment: cell cycle analysis (PI, flow cytometry); type: cell-based, human; details: Kasumi1, 24 h
Description: as §5

SKM1 = experiment: cell cycle analysis (PI, flow cytometry); type: cell-based, human
Description: as §5

THP1 [5] = experiment: cell cycle analysis (PI, flow cytometry); type: cell-based, human; details: THP1, 24 h
Description: as §5

HL-60 [6] = experiment: autophagosome formation (DAPGreen); type: cell-based, human; details: HL-60, 1 or 10 mM, 2 h
Description: (§6) Autophagosome formation was evaluated using the DAPGreen-Autophagy Detection Kit (Dojindo Molecular Technologies). HL-60 and THP1 cells were cultured overnight in 6-well plates at a density of 5 × 10^5 or 1 × 10^6 cells. The cells were then washed once with culture medium and incubated with DAPGreen working solution at 37 °C for 30 min. After the cells were washed twice, CyDs (1 mM, 10 mM) were added to the wells and incubated for 2 h. The samples were analyzed using a flow cytometer (FACS Canto II) or a fluorescence microscope (Carl Zeiss, Jena, Germany).

THP1 [7] = experiment: autophagosome formation (DAPGreen); type: cell-based, human; details: THP1, 1 or 10 mM, 2 h
Description: as §6

HL-60 [8] = experiment: cell viability with autophagy inhibitors (Cell Counting Kit-8); type: cell-based, human; details: 1 mM FA-HP-β-CyD or 10 mM HP-β-CyD, chloroquine 20 μM, LY294002 50 μM, bafilomycin A1 1 nM
Description: (§7) HL-60 and THP1 cells (2 × 10^5 cells in 100 µL of RPMI-1640 medium per well) were seeded in flat-bottomed 96-well plates (Greiner Labortechnik, Hamburg, Germany) and treated with both 1 mM of FA-HP-β-CyD and 10 mM of HP-β-CyD at 37 °C for 2 h. The cells were then pretreated for 24 h with the autophagy inhibitors chloroquine (20 µM), LY294002 (50 μM; Fujifilm Wako Pure Chemicals Co., Ltd., Osaka, Japan), or bafilomycin A1 (1 nM; Funakoshi, Tokyo, Japan). Cell proliferation was assessed using Cell Counting Kit-8.

THP1 [9] = experiment: as above; type: cell-based, human; details: 1 mM FA-HP-β-CyD or 10 mM HP-β-CyD, chloroquine 20 μM, LY294002 50 μM, bafilomycin A1 1 nM
Description: as §7

THP1 cells = experiment: AML xenograft survival model; type: in vivo, BALB/c Rag-2/JAK3 double-deficient (BRJ) mice; details: 20 days; for Median Survival Time: Figure 7B, HP-β-CyD 2086.5 mg/kg i.p. twice a day, FA-HP-β-CyD 249 mg/kg i.p. twice a day, Ara-C 100 mg/kg i.p., n = 6
Description: as §2, §3

[10] = mouse, in vivo, ip
Description: (§8) At 24 h after the first injection, and at 8 days after the last of seven repeat injections, peripheral blood was collected from the tail vein and analyzed by an automated blood cell counter (Celltacα MEK-6500; NIHON KOHDEN, Tokyo, Japan). Data are presented as the mean ± SEM of three independent experiments.

[11] = tested on: normal human bone marrow CD34-positive progenitor cells; experiment: methylcellulose colony formation assay; details: 10 mM HP-β-CyD, 1 mM FA-HP-β-CyD, 1 week of culture
Description: Human bone marrow CD34 positive cells were purchased from LONZA (Bazel, Switzerland). […] After 1 week of culture, the number of colonies was counted using an inverted microscope. Data represent the mean number of colonies ± SEM (n = 3).

[12] = peripheral blood cell count after intraperitoneal administration; details: for Hb / Plt / WBC: seven repeat injections, Day 8
Description: as §8

[13] = Figure 7C, Venetoclax 25 mg/kg oral gavage daily
[14] = Figure 7A, Ara-C 100 mg/kg i.p.

Row | Molecule | IC50 (HL-60 [1]; Homo sapiens, HL-60) [µM] | IC50 (SKM-1; Homo sapiens, SKM-1, SKM1) [µM] | IC50 (THP-1; Homo sapiens, THP-1, THP1) [µM] | Median Survival Time (HL-60 cells; [13]) [days] | cell viability (trypan blue) (AML cell lines [2]) | apoptosis induction (AML cell lines [3]) | effect on cell cycle status (HL-60 [4]) | effect on cell cycle status (Kasumi1) | effect on cell cycle status (THP1 [5]) | viability in the presence of autophagy inhibitors vs CyD alone (HL-60 [8]) | viability in the presence of autophagy inhibitors vs CyD alone (THP1 [9]) | Median Survival Time (HL-60 cells; [14]) [days] | Median Survival Time (THP1 cells) [days] | also measured
1 | CC1(C)CCC(CN2CCN(c3ccc(C(=O)NS(=O)(=O)c4ccc(NCC5CCOCC5)c([N+](=O)[O-])c4)c(Oc4cnc5[nH]ccc5c4)c3)CC2)=C(c2ccc(Cl)cc2)C1 [Venetoclax] | 0.0503 | 1.1 | 0.442 | 36 | – | – | – | – | – | – | – | – | – | –
2 | folate-conjugated HP-β-CyD [FA-HP-β-CyD] | – | – | – | 35 | reduced the cell viability of the AML cell lines in a dose-dependent manner | triggered early apoptosis in four AML cell lines in a dose-dependent manner | no alteration in cell cycle status | no alteration in cell cycle status | no alteration in cell cycle status | higher than that in the presence of FA-HP-β-CyD alone | higher than that in the presence of FA-HP-β-CyD alone | 38 | 50.5 | IC50 (HL-60 [1]; HL-60, 72 h): 620 µM; IC50 (SKM-1; SKM-1, 72 h): 200 µM; IC50 (THP-1; THP-1, 72 h): 320 µM; IC50 (Kasumi-1): 300 µM; effect on cell cycle status (predicted, no experimental data) (SKM1; SKM1): no change in the cell cycle status was predicted; number of autophagic vacuoles (DAPGreen fluorescence) (HL-60 [6]): increased; number of autophagic vacuoles (DAPGreen fluorescence) (THP1 [7]): increased; survival compared with vehicle-injected mice (HL-60 cells; 249 mg/kg i.p. b.i.d.): survived significantly longer; survival compared with vehicle-injected mice (THP1 cells; 249 mg/kg i.p. b.i.d.): survived significantly longer; adverse effects on white blood cell counts, hemoglobin concentrations, platelet counts [10]: no adverse effects
3 | Nc1ccn([C@@H]2O[C@H](CO)[C@@H](O)[C@@H]2O)c(=O)n1 [Ara-C, cytarabine] | 0.495 | 0.6 | 7.19 | – | – | – | – | – | – | – | – | 34 | 45.5 | –
4 | CC(O)COC[C@H]1O[C@@H]2O[C@H]3[C@H](O)[C@@H](O)[C@@H](O[C@H]4[C@H](O)[C@@H](O)[C@@H](O[C@H]5[C@H](O)[C@@H](O)[C@@H](O[C@H]6[C@H](O)[C@@H](O)[C@@H](O[C@H]7[C@H](O)[C@@H](O)[C@@H](O[C@H]8[C@H](O)[C@@H](O)[C@@H](O[C@H]1[C@H](O)[C@H]2O)O[C@@H]8COCC(C)O)O[C@@H]7COCC(C)O)O[C@@H]6COCC(C)O)O[C@@H]5COCC(C)O)O[C@@H]4COCC(C)O)O[C@@H]3COCC(C)O (stereo partly drawn) [HP-β-CyD, 2-Hydroxypropyl-β-cyclodextrin] | – | – | – | 35 | reduced the cell viability of the AML cell lines in a dose-dependent manner | underwent apoptosis | dose-dependent increase in the percentage of cells in G2/M phase | dose-dependent increase in the percentage of cells in G2/M phase | dose-dependent increase in the percentage of cells in G2/M phase | not affected by the presence or absence of autophagy inhibitors | not affected by the presence or absence of autophagy inhibitors | 38 | 49.5 | IC50 (HL-60 [1]; Homo sapiens, HL-60, 72 h): 7660 µM; IC50 (SKM-1; Homo sapiens, SKM-1, 72 h): 9440 µM; IC50 (THP-1; Homo sapiens, THP-1, 72 h): 9050 µM; IC50 (Kasumi-1; Homo sapiens): 3140 µM; mode of cell death at high concentration (AML cell lines [3]; 15 mM HP-β-CyD): appeared to undergo necrosis; effect on cell cycle status (SKM1; SKM1, before and after exposure): no change in cell cycle; colony formation [11]: reduced colony numbers; change in blood cell counts compared with vehicle (PBS) ([12]; 8 days after intraperitoneal injection, exception: higher dose of HP-β-CyD (10,000 mg/kg b.i.d.)): no significant change; Hb ([12]; HP-β-CyD 2000 mg/kg i.p.): 12.4 ± 0.67 g/dL; Plt ([12]; HP-β-CyD 2000 mg/kg i.p.): 64.5 ± 2.29 ×10^4/μL; WBC ([12]; HP-β-CyD 2000 mg/kg i.p.): 44.7 ± 12.65 ×10^2/μL; Hb ([12]; HP-β-CyD 6000 mg/kg i.p.): 14.3 ± 0.25 g/dL; Plt ([12]; HP-β-CyD 6000 mg/kg i.p.): 60.2 ± 10.69 ×10^4/μL; WBC ([12]; HP-β-CyD 6000 mg/kg i.p.): 50.0 ± 2.34 ×10^2/μL; Plt ([12]; HP-β-CyD 10,000 mg/kg i.p.): 75.5 ± 17.83 ×10^4/μL; WBC ([12]; HP-β-CyD 10,000 mg/kg i.p., p < 0.05): 30.5 ± 1.65 ×10^2/μL
